Literature values in patent US20180125916A1, “System and Method for Natural Hair Loss Prevention Oil” (priority 2016, published 2018).

Tested on: male pattern baldness

Compound | sexual dysfunction side effect (administered orally) | shedding on use (first 2 months of use) | itching as a side effect (in vivo)
CC(C)(C)NC(=O)[C@H]1CC[C@H]2[C@@H]3CC[C@H]4NC(=O)C=C[C@]4(C)[C@H]3CC[C@]12C [Finasteride] | known to cause permanent sexual dysfunction | – | –
Nc1cc(N2CCCCC2)nc(N)[n+]1[O-] [Minoxidil] | – | can cause shedding in the first 2 months of use | high likelihood of a considerable itching
